{
  "source": "paper PMC11738990",
  "about": "“A small-molecule TNIK inhibitor targets fibrosis in preclinical and clinical models” (Nature Biotechnology, 2024)",
  "key": {"C57BL/6 mice [1]": {"tested_on": "C57BL/6 mice", "assay": "Bleomycin-induced lung fibrosis model, combination with pirfenidone", "type": "in vivo, mouse", "conditions": "PFD 60 BID", "procedure": "(§1) Mice received bleomycin on day 1 at a dose of 0.66 mg per kg (equivalent to 1 U per kg), in a volume of 50 μl by intratracheal administration, or received saline (sham group). On day 7, dosing with the corresponding compounds was started. The vehicle group (group 1) was treated with 0.5% methylcellulose BID. […] On days 5 and 21, lung function measurement was performed. On day 28, all animals were killed, and blood and tissue samples were collected along with BALF.\n(§2) Lung function was measured according to the HDB standard protocol. Expiratory time, relaxation time, peak expiratory flow and peak inspiratory flow were collected and used to calculate Penh data.\nLung sections were cut at a thickness of 4 μm, dried in an oven for 1 h and stained with M&T using our standard protocol. Briefly, sections were stained with Weigert’s iron hematoxylin working solution for 10 min, stained in Biebrich scarlet–acid fuchsin solution for 10 min, differentiated in phosphomolybdic–phosphotungstic acid solution for 5 min or until the collagen was not red, transferred to aniline blue solution, stained for 1 min and then dedifferentiated in 1% acetic acid solution. Next, sections were dehydrated and coverslipped for subsequent image analysis. For image analysis of collagen deposition, Masson’s trichrome-stained slides were scanned by using Aperio ScanScope Model CS2 (Leica) at ×200 magnification. Images were then opened with HALO. Using the pen tool, the whole left lung section was selected as an annotation layer. The area occupied by blue collagen fibers was measured using the pen tool. The percentage of fibrosis (positive areas) in the selected annotation was then calculated with the program. Fibrosis was expressed as a percentage per lung section.\nSections (4 μm thick) were placed on slides, and, after overnight drying, paraffin was removed with xylene. Next, sections were placed in a graded ethanol series and immersed in distilled water. After heat-induced citrate antigen (pH 6.0) unmasking, sections were immersed in 3% hydrogen peroxide solution for 5 min. […] Next, secondary antibodies conjugated to HRP were added. For image analysis of fibrosis, stained sections were used and scanned with the Aperio CS2 Scanner machine. Images were then opened with HALO. Using the pen tool, the whole left lung section was selected as an annotation layer. The bronchus was excluded in the annotation layer. The area occupied by collagen fibers was measured using the ‘Area Quantification v2.1.3’ module. The percentage of positive areas in the selected annotation was then calculated using the program."}, "Sprague Dawley rats": {"tested_on": "Sprague Dawley rats", "assay": "Bleomycin-induced lung fibrosis model, inhalation administration", "type": "in vivo, rat", "conditions": "Pirfenidone 350 mg/kg; individual animals, Fig 4", "procedure": "On day 1 of the study, bleomycin hydrochloride was administered to 8–9-week-old Sprague Dawley rats at a final concentration of 1.5 mg ml^−1 in sodium chloride solution (dosed volume at 1.0 ml per kg) by intratracheal atomization (once in the morning and once in the afternoon) to build the pulmonary fibrosis model.\nA German PARI compression atomizer (PARI TurboBOY) was set at an aerosol flow rate of 9–10 l min^−1. […] The dilution flow of aerosol was set at 0 l min^−1, and the pumping-out flow from the chamber was set at 6 l min^−1. The fluid rate was set at 0.5 ml min^−1 for test article replenishment. Before nebulization, aerosol-generation conditions were validated three times.\nAnd these parameters were recorded in real time during the experiment.\nFor concentration assessment, a glass fiber filter membrane (φ = 37 mm) was used to measure aerosol concentrations during drug administration from approximately day 8 to day 28. Sampling was taken at 5 min (±1 min) after drug administration from a random exposure port. […] Aerosol particle size parameters were calculated with the system software: median mass aerodynamic diameter (MMAD), geometric standard deviation, fine particle fraction (percentage of fine particles with MMAD < 5 μm), etc.\nOn day 29 and before euthanasia, animals were anesthetized with chloral hydrate (90 mg ml^−1, 5 ml per kg, i.p.). Necks were cut longitudinally at the middle to isolate trachea, and a catheter was intubated into the trachea toward the tail direction and fixed with a suture thread. The anesthetized animals were placed into the plethysmography chamber, to which the airway was connected. The AniRes2005 animal lung function-analysis system was used to assess parameters including FVC, airway resistance and pulmonary compliance. The ventilator respiration rate was set to 65 beats per minute; the respiration ratio was set to 20:10; the negative pressure controller was set to 30 cm H2O. FVC detection was set to pressure-control mode, while pressure was set to 30 cm H2O. The startup mode was selected to automatically detect at the end of breath, and the ‘Start’ button was clicked to passively inhale and then turned to exhale after reaching the set pressure value. Next, the ‘Stop’ button was clicked to complete an FVC detection. Each animal was evaluated for FVC at least five times. The final result was the mean value after the maximum and minimum data were excluded for analysis."}, "C57BL/6 mice [2]": {"tested_on": "C57BL/6 mice", "assay": "Unilateral ureteral obstruction (UUO) kidney fibrosis model;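 note: mice had the left ureter ligated on day 0, received treatment from day 0 through day 14 and were killed on day 14 for kidney analysis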", "conditions": "SB525334 100 mg/kg QD, individual animals, Fig 5C-D", "procedure": "The surgery took place on two separate days. Mice were divided into two slots based on their body weight before the day of the surgery. On day 0 (day of surgery), UUO surgery was performed after administration of three types of mixed anesthetic agents (medetomidine, midazolam, butorphanol). Mice were shaved at the incision site, the abdomen was cut open, and the left ureter was exteriorized and ligated with 4-0 silk sutures at two points. Finally, the peritoneum and the skin were closed with sutures.\nTreatments were applied from day 0 to day 14. And animals were killed on day 14, and blood and tissue samples were collected.\nFrozen kidney samples were processed by an alkaline acid hydrolysis method as follows. […] Next, AC buffer (2.2 M acetic acid and 0.48 M citric acid, 400 μl) was added to the samples, followed by centrifugation to collect the supernatant. […] The samples were then mixed with Ehrlich’s solution (400 μl) and heated at 65 °C for 20 min to develop color. After samples were cooled on ice and centrifuged to remove precipitates, the optical density of each supernatant was measured at 560 nm. Hydroxyproline concentrations were calculated from the hydroxyproline standard curve. Kidney hydroxyproline contents were expressed as μg per mg protein, and the amount of protein was determined using the BCA Protein Assay Kit (Thermo Fisher Scientific).\nAt the end of the UUO study, the left kidney was fixed in Bouin’s solution and embedded in paraffin. Kidney sections were stained using picro-Sirius red solution (Waldeck). To quantify the interstitial fibrosis area, brightfield images in the corticomedullary region were captured using a digital camera (DFC295) at 200-fold magnification, and the positive areas in five fields per section were measured using ImageJ software (National Institute of Health).\nParaffin sections were deparaffinized and hydrophilized with xylene, 100–70% alcohol series and RO water, and then circles were drawn around the kidney sections. […] After washing with PBS, kidney sections were treated with PBS with Tween-20 (PBST), followed by incubation with Block Ace (DS Pharma Biomedical) at room temperature for 10 min. The sections were incubated with the primary antibody (anti-collagen I) at 4 °C overnight. After washing with PBS, kidney sections were treated with PBST, followed by incubation with secondary antibody at room temperature for 30 min. After washing with PBS, kidney sections were fixed with 1% glutaraldehyde solution at room temperature for 1 min. After washing with RO water, kidney sections were treated with PBST and then colored using a chromogenic substrate (Simple Stain DAB, Nichirei Bioscience). After washing with RO water, kidney sections were immersed in an eightfold-diluted hematoxylin solution for 1 min and washed with RO water immediately. […] For scoring of IHC analyses, brightfield images were captured using a digital camera (DFC295) at 200-fold magnification, and the score in one field per section was determined."}, "C57BL/6 mice [3]": {"tested_on": "C57BL/6 mice", "assay": "LPS-induced acute lung injury model;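 note: bronchoalveolar lavage fluid sampled one day after intratracheal LPS challenge, cytokines measured by ELISA in supernatant, lymphocytes counted on Diff-Quick stained cytospin smears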", "type": "in vivo, mouse", "conditions": "G3 Dex 10mpk BID; individual animals, Fig 3E-F; listed as Dex", "procedure": "One day before the first experimental day, animals were grouped. All mice were anesthetized with Zoletil–xylazine (50 mpk and 10 mpk, i.p.). At 0 h, mice received LPS at a dose of 50 μl as 50 μg per mouse (groups 2–5, n = 8 per group) or 50 μl saline (group 1, n = 8 per group) by intratracheal administration. […] In the dexamethasone group (group 5), animals were treated with dexamethasone both 2 h before and 4 h after the LPS challenge. Twenty-four hours after the LPS challenge, animals were euthanized, and BALF samples were collected.\n(§3) Mice were first anesthetized with Zoletil–xylazine (50 mpk and 10 mpk, i.p.). Next, a 1.5–2-cm longitudinal incision was made on the ventral side of the neck to expose the trachea by blunt dissection, and curved forceps were placed underneath the trachea. A 10–12-cm piece of suture was then threaded underneath the trachea using forceps. The ends of the suture were then pulled cranially to ‘stretch’ the trachea toward the surgeon. A 20-G needle was then used to poke a hole in the trachea as close to the larynx as possible. A 22-G blunt stainless steel needle connected to PE tubing was placed in the hole and inserted approximately 5–8 mm into the trachea. The cannula was secured in the trachea by tying the suture around it with an overhand knot. A 1-ml syringe containing 0.4 ml saline was gently pushed forward and backward three times to recover BALF fluid. BALF was transferred into empty tubes and stored on ice. This process was repeated twice with 0.3 ml saline for a total volume of 1 ml.\n(§4) Total cell numbers were counted with a standard hemocytometer by mixing 20 μl BALF with 20 μl trypan blue. Cytospins were prepared by cytocentrifugation using Cytospins at 106g for 5 min, and then smears of BALF cells were stained with Diff-Quick stain. Cell differentiation was performed by counting at least 400 cells using standard hemocytologic criteria to classify them as alveolar macrophages or monocytes, neutrophils, eosinophils or lymphocytes. The rest of the BALF fluid was centrifuged, and supernatants were collected and stored at −80 °C for cytokine, chemokine and total protein analysis.\n(§5) From the collected BALF, concentrations of cytokines were measured from mice in groups 2–7 killed on day 28. Mouse BALF cytokines and chemokines were measured using the ELISA Analysis Kit (Sinobest Bio). Mouse BALF soluble collagen was measured using the Soluble Collagen kit (Biocolor). Mouse lung hydroxyproline content was measured using the Hydroxyproline Assay Kit (Njjcbio)."}, "[4]": {"tested_on": "cyclin-dependent kinase (CDK)2", "conditions": "0.1 μM; cited from earlier work"}, "C57BL/6 mice [5]": {"tested_on": "C57BL/6 mice", "assay": "Bleomycin-induced lung fibrosis model", "type": "in vivo, mouse", "conditions": "individual animals", "procedure": "as §1, §2, §3, §4, §5\nLeft lung lobes were removed from each mouse and fixed in 10% NBF solution, embedded in paraffin and processed to obtain 4-μm sections for staining with H&E. H&E-stained slides were scanned using an Aperio ScanScope Model CS2 (Leica) at ×200 magnification. Images were then opened in the HALO Plus 5 workstation (version 2.3, Indica Labs) program. Using the pen annotation tool, the whole-lung section was selected as an annotation layer. The area of vessels was defined as background using the exclusion drawing tool. The total inflammation area was quantified by selecting the dark blue inflammation cells using the pen annotation tool manually. The percentage of H&E staining (inflammation area/total area of the lung) in the selected annotation was then calculated using the program.\nMasson’s trichrome staining was conducted using a ready-to-use kit (Trichrome Stain (Masson) Kit, HT15, Sigma-Aldrich) as described by the manufacturer.\nLung sections were cut at a thickness of 4 μm, dried in an oven for 1 h and stained with M&T using our standard protocol."}, "[6]": {"conditions": "G5 Nintedanib 60mpk QD, Fig 3B-C"}},
  "note": "Where “and” joins values, the source holds several entries; their conditions need not be identical. Equal values may be shown once.",
  "data": [
    {"smiles": "Cc1ccc(=O)n(-c2ccccc2)c1", "note": "[PFD, reference compound]", "values": [
      {"measurement": "Modified Ashcroft Score", "setting": "C57BL/6 mice [1]", "result": "4.5 and 5.25 and 5 and 4.75 and 5.5 and 4.25"},
      {"measurement": "Cdyn", "setting": "Sprague Dawley rats", "result": "0.3225 mL/cmH2O and 0.3123 mL/cmH2O and 0.3091 mL/cmH2O and 0.2795 mL/cmH2O and 0.2995 mL/cmH2O and 0.311 mL/cmH2O and 0.2781 mL/cmH2O and 0.3041 mL/cmH2O and 0.3215 mL/cmH2O and 0.2768 mL/cmH2O and 0.3388 mL/cmH2O and 0.3313 mL/cmH2O"},
      {"measurement": "FVC", "setting": "Sprague Dawley rats", "result": "11.834 and 11.621 and 10.998 and 9.152 and 10.235 and 10.576 and 10.334 and 10.683 and 12.105 and 9.791 and 11.908 and 11.529"},
      {"measurement": "HE staining for inflammatory infiltration", "setting": "Sprague Dawley rats", "result": "7.178 and 19.4033 and 79.9063 and 22.6394 and 11.901 and 21.4024 and 18.4629 and 10.7655 and 14.7132 and 7.539 and 10.0121 and 11.9271"},
      {"measurement": "MT staining for fibrosis", "setting": "Sprague Dawley rats", "result": "10.0525 and 23.681 and 70.2292 and 22.9771 and 14.4065 and 16.7608 and 19.0061 and 11.0741 and 14.7041 and 7.51 and 11.2668 and 15.3486"},
      {"measurement": "Modified Ashcroft Score", "setting": "Sprague Dawley rats", "result": "2.42 and 3.08 and 3.92 and 2.83 and 3.17 and 2.75 and 2 and 2.08 and 2.33 and 2.5"},
      {"measurement": "RL", "setting": "Sprague Dawley rats", "result": "0.1938 cmH2O and 0.2018 cmH2O and 0.2011 cmH2O and 0.2233 cmH2O and 0.2084 cmH2O and 0.2023 cmH2O and 0.2267 cmH2O and 0.2069 cmH2O and 0.196 cmH2O and 0.2278 cmH2O and 0.184 cmH2O and 0.1887 cmH2O"}
    ]},
    {"smiles": "Cc1cccc(-c2[nH]c(C(C)(C)C)nc2-c2ccc3nccnc3c2)n1", "note": "[SB525334, reference compound]", "values": [
      {"measurement": "Collagen Type 1 score", "setting": "C57BL/6 mice [2]", "result": 1},
      {"measurement": "Fibrosis area (sirius red positive area)", "setting": "C57BL/6 mice [2]; 100 mg/kg", "result": "0.79 and 1.13 and 0.97 and 0.36 and 0.56 and 0.41 and 0.76 and 0.48"},
      {"measurement": "Kidney hydroxyproline", "setting": "C57BL/6 mice [2]; 100 mg/kg", "result": "3.88 and 4.04 and 4.13 and 2.51 and 3.1 and 4.54 and 4.91"}
    ]},
    {"smiles": "C[C@@H]1C[C@H]2[C@@H]3CCC4=CC(=O)C=C[C@]4(C)[C@@]3(F)[C@@H](O)C[C@]2(C)[C@@]1(O)C(=O)CO", "note": "[Dexamethasone, reference compound]", "values": [
      {"measurement": "IL-1β", "setting": "C57BL/6 mice [3]", "result": "90.1547 and 104.645 and 85.96 and 83.2907 and 79.4774 and 99.688 and 85.1973 and 77.1894"},
      {"measurement": "IL-4", "setting": "C57BL/6 mice [3]", "result": "38.428 and 35.2518 and 35.7056 and 41.1504 and 38.1255 and 36.613 and 38.8817 and 44.3266"},
      {"measurement": "IL-6", "setting": "C57BL/6 mice [3]", "result": "27.9 and 24.66 and 28.93 and 26.28 and 30.56 and 33.5 and 31.73 and 30.41"},
      {"measurement": "IL-7", "setting": "C57BL/6 mice [3]", "result": "25.06 and 25.43 and 30.03 and 28.19 and 29.85 and 32.24 and 34.63 and 29.29"},
      {"measurement": "Lymphocytes", "setting": "C57BL/6 mice [3]", "result": "11000 and 9300 and 5750 and 9600 and 6400 and 32400 and 4950 and 10750"},
      {"measurement": "TNF-alpha", "setting": "C57BL/6 mice [3]", "result": "362.89 and 452.57 and 397.89 and 371.64 and 437.26 and 448.2 and 351.95 and 301.64"}
    ]},
    {"smiles": "OC1CCC(Oc2cccc3cnc(Nc4ccc5nc[nH]c5c4)nc23)CC1", "note": "(stereo not drawn) [NCB-0846]", "values": [
      {"measurement": "inhibition", "setting": "[4]", "result": "> 80", "unit": "%"}
    ]},
    {"smiles": "COC(=O)c1ccc2c(c1)NC(=O)/C2=C(\\Nc1ccc(N(C)C(=O)CN2CCN(C)CC2)cc1)c1ccccc1", "note": "[Nintedanib, reference compound]", "values": [
      {"measurement": "HE staining (inflammation area)", "setting": "C57BL/6 mice [5]; 60mpk QD", "result": "0.45 and 0.15 and 0.63 and 0.09 and 1.34 and 0.26 and 0.72 and 0.83 and 1.48 and 0.9"},
      {"measurement": "IL-1beta in BALF", "setting": "C57BL/6 mice [5]; 60mpk QD", "result": "168.67 and 169.31 and 175.04 and 171.22 and 152.11 and 187.14 and 147.65 and 164.21"},
      {"measurement": "IL-6 in BALF", "setting": "C57BL/6 mice [5]; 60mpk QD", "result": "147.17 and 136.31 and 119.43 and 143.55 and 137.52 and 155.01 and 125.46 and 138.12 and 158.63"},
      {"measurement": "monocytes, cell count in BALF", "setting": "C57BL/6 mice [5]; 60mpk QD", "result": "87000 and 128700 and 121600 and 174600 and 58800 and 161100 and 39800 and 37000 and 99000 and 75600"},
      {"measurement": "neutrophils, cell count in BALF", "setting": "C57BL/6 mice [5]; 60mpk QD", "result": 0},
      {"measurement": "Lung function (Penh)", "setting": "C57BL/6 mice [5]; [6]", "result": "0.5478 and 2.603 and 0.6904 and 2.472 and 0.7934 and 0.9276 and 0.6395 and 0.7208 and 1.0675 and 0.6757 and 1.195 and 2.42 and 0.41"},
      {"measurement": "Masson Trichrome's staining", "setting": "C57BL/6 mice [5]; [6]", "result": "0.55 and 0.4 and 0.78 and 0.03 and 1.61 and 0.54 and 0.87 and 0.56 and 1.52 and 0.39"},
      {"measurement": "Modified Ashcroft Score", "setting": "C57BL/6 mice [5]; [6]", "result": "3.5 and 2.5 and 1.75 and 1.25 and 2.25 and 3.25 and 0.5"},
      {"measurement": "collagen I", "setting": "C57BL/6 mice [5]; [6]", "result": "2.73 and 0.02 and 0.37 and 0.05 and 0.16 and 0.9 and 0.94 and 0.03 and 0.07"},
      {"measurement": "α-SMA", "setting": "C57BL/6 mice [5]; [6]", "result": "0.19 and 0.04 and 0.06 and 0.17 and 0.42 and 0.08 and 0.45 and 0.15 and 0.22 and 0.14"}
    ]}
  ]
}
